Data: ChEMBL document CHEMBL4507302, “Data for DCP probe TP-020” (2021)

Key:
[1] = test system: Tyrosine-protein kinase ABL1 (Homo sapiens), P00519 [Y253F]; settings: Compound concentration 1000.0 nM
[2] = target: Protein-tyrosine kinase 6 (Homo sapiens) (UniProt Q13882); settings: Compound concentration 1000.0 nM
[3] = target: Serine/threonine-protein kinase BRSK1 (Homo sapiens) (UniProt Q8TDC3); settings: Compound concentration 1000.0 nM
[4] = target: Calcium/calmodulin-dependent protein kinase type 1B (Homo sapiens) (UniProt Q6P2M8); settings: Compound concentration 1000.0 nM
Sequence of Calcium/calmodulin-dependent protein kinase type 1B (Homo sapiens) (Q6P2M8 whole entry): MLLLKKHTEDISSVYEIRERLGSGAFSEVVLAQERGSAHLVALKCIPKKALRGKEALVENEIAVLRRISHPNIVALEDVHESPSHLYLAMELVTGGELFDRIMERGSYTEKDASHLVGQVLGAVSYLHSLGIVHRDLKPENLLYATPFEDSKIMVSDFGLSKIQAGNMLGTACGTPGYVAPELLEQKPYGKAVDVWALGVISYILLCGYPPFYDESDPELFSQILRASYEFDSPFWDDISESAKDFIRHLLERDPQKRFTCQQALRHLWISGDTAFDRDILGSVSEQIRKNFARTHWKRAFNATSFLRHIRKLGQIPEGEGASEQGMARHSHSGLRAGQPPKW

[5] = target: Cyclin-dependent kinase 5 (Homo sapiens) (UniProt Q00535); settings: Compound concentration 1000.0 nM
[6] = target: Cyclin-dependent kinase-like 3 (Homo sapiens) (UniProt Q8IVW4); settings: Compound concentration 1000.0 nM
[7] = target: Cyclin-dependent kinase-like 5 (Homo sapiens) (UniProt O76039); settings: Compound concentration 1000.0 nM
[8] = target: Macrophage colony-stimulating factor 1 receptor (Homo sapiens) (UniProt P07333); settings: Compound concentration 1000.0 nM
Sequence of Macrophage colony-stimulating factor 1 receptor (Homo sapiens) (P07333 whole entry): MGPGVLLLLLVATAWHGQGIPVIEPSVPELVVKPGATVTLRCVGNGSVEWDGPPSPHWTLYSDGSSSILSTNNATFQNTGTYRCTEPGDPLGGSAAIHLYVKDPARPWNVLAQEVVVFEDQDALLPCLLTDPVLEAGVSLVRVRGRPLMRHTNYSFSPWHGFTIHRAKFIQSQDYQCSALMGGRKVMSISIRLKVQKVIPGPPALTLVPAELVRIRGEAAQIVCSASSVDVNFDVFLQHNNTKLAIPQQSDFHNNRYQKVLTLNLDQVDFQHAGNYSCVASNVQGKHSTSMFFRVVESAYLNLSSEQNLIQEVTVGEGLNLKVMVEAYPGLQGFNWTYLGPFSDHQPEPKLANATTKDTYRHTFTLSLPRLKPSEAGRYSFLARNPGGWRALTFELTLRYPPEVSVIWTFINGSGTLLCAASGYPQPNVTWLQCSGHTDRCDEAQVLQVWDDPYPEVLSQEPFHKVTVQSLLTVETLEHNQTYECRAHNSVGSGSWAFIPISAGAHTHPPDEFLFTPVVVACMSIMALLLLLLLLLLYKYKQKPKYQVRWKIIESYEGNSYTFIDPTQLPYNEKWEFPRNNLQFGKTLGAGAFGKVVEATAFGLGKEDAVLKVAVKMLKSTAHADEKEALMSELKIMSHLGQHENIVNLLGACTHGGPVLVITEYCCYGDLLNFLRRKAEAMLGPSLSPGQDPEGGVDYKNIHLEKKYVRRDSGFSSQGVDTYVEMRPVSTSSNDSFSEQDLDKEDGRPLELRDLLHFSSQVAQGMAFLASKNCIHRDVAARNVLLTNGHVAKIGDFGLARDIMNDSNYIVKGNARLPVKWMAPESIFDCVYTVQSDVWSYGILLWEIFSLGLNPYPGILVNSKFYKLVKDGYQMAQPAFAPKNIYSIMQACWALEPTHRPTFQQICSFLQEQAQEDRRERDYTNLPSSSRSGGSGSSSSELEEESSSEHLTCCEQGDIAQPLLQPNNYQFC

[9] = target: Serine/threonine-protein kinase 17B (Homo sapiens) (UniProt O94768); settings: Compound concentration 1000.0 nM
[10] = target: Dual specificity tyrosine-phosphorylation-regulated kinase 2 (Homo sapiens) (UniProt Q92630); settings: Compound concentration 1000.0 nM
[11] = test system: Epidermal growth factor receptor (Homo sapiens), P00533 [UNDEFINED MUTATION]; settings: Compound concentration 1000.0 nM
[12] = target: Ephrin type-B receptor 2 (Homo sapiens) (UniProt P29323); settings: Compound concentration 1000.0 nM
[13] = target: Mitogen-activated protein kinase 1 (Homo sapiens) (UniProt P28482); settings: Compound concentration 1000.0 nM
[14] = target: Fibroblast growth factor receptor 1 (Homo sapiens) (UniProt P11362); settings: Compound concentration 1000.0 nM
[15] = target: Receptor-type tyrosine-protein kinase FLT3 (Homo sapiens) (UniProt P36888); settings: Compound concentration 1000.0 nM
[16] = target: Tyrosine-protein kinase FRK (Homo sapiens) (UniProt P42685); settings: Compound concentration 1000.0 nM
[17] = target: Tyrosine-protein kinase Fyn (Homo sapiens) (UniProt P06241); settings: Compound concentration 1000.0 nM
[18] = target: Mitogen-activated protein kinase kinase kinase kinase 1 (Homo sapiens) (UniProt Q92918); settings: Compound concentration 1000.0 nM
[19] = target: Insulin receptor (Homo sapiens) (UniProt P06213); settings: Compound concentration 1000.0 nM
[20] = target: Tyrosine-protein kinase JAK2 (Homo sapiens) (UniProt O60674); settings: Compound concentration 1000.0 nM
[21] = target: Mast/stem cell growth factor receptor Kit (Homo sapiens) (UniProt P10721); settings: Compound concentration 1000.0 nM
[22] = target: Serine/threonine-protein kinase 10 (Homo sapiens) (UniProt O94804); settings: Compound concentration 1000.0 nM
[23] = target: Mitogen-activated protein kinase kinase kinase 3 (Homo sapiens) (UniProt Q99759); settings: Compound concentration 1000.0 nM
[24] = target: MAP kinase-activated protein kinase 5 (Homo sapiens) (UniProt Q8IW41); settings: Compound concentration 1000.0 nM
[25] = target: MAP/microtubule affinity-regulating kinase 3 (Homo sapiens) (UniProt P27448); settings: Compound concentration 1000.0 nM
[26] = target: Mitogen-activated protein kinase kinase kinase 10 (Homo sapiens) (UniProt Q02779); settings: Compound concentration 1000.0 nM
Sequence of Mitogen-activated protein kinase kinase kinase 10 (Homo sapiens) (Q02779 whole entry, looked up): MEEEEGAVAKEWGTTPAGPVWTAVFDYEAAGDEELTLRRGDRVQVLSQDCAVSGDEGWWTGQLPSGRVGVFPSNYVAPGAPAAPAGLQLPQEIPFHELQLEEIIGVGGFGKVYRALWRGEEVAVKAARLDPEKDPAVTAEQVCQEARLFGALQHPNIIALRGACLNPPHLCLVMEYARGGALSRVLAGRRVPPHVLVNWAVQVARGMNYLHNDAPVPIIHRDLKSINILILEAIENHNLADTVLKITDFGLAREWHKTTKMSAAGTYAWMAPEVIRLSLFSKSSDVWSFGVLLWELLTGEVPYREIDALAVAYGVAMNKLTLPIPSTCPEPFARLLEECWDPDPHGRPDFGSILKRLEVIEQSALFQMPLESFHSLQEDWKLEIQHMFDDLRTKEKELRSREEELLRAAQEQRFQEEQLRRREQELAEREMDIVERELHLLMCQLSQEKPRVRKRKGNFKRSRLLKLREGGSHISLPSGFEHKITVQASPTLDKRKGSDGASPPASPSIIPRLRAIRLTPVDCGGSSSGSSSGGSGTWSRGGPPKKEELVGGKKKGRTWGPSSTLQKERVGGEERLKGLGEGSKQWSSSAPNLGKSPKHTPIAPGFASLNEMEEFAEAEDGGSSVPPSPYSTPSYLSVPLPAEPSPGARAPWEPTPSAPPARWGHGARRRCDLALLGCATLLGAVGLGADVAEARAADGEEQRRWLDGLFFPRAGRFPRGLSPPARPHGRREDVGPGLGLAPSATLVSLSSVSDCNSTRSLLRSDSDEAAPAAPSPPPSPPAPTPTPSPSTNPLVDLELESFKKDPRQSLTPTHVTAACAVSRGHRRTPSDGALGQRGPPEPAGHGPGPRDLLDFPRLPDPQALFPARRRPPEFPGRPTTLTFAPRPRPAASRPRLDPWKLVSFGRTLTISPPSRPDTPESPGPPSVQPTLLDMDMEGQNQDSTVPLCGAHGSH

[27] = target: Serine/threonine-protein kinase mTOR (Homo sapiens) (UniProt P42345); settings: Compound concentration 1000.0 nM
[28] = target: Serine/threonine-protein kinase Nek3 (Homo sapiens) (UniProt P51956); settings: Compound concentration 1000.0 nM
[29] = target: Serine/threonine-protein kinase NIM1 (Homo sapiens) (UniProt Q8IY84); settings: Compound concentration 1000.0 nM
[30] = target: Cyclin-dependent kinase 17 (Homo sapiens) (UniProt Q00537); settings: Compound concentration 1000.0 nM
[31] = target: Phosphatidylinositol 5-phosphate 4-kinase type-2 beta (Homo sapiens) (UniProt P78356); settings: Compound concentration 1000.0 nM
[32] = target: cAMP-dependent protein kinase catalytic subunit beta (Homo sapiens) (UniProt P22694); settings: Compound concentration 1000.0 nM
[33] = target: Protein-tyrosine kinase 2-beta (Homo sapiens) (UniProt Q14289); settings: Compound concentration 1000.0 nM
Sequence of Protein-tyrosine kinase 2-beta (Homo sapiens) (Q14289 whole entry, looked up): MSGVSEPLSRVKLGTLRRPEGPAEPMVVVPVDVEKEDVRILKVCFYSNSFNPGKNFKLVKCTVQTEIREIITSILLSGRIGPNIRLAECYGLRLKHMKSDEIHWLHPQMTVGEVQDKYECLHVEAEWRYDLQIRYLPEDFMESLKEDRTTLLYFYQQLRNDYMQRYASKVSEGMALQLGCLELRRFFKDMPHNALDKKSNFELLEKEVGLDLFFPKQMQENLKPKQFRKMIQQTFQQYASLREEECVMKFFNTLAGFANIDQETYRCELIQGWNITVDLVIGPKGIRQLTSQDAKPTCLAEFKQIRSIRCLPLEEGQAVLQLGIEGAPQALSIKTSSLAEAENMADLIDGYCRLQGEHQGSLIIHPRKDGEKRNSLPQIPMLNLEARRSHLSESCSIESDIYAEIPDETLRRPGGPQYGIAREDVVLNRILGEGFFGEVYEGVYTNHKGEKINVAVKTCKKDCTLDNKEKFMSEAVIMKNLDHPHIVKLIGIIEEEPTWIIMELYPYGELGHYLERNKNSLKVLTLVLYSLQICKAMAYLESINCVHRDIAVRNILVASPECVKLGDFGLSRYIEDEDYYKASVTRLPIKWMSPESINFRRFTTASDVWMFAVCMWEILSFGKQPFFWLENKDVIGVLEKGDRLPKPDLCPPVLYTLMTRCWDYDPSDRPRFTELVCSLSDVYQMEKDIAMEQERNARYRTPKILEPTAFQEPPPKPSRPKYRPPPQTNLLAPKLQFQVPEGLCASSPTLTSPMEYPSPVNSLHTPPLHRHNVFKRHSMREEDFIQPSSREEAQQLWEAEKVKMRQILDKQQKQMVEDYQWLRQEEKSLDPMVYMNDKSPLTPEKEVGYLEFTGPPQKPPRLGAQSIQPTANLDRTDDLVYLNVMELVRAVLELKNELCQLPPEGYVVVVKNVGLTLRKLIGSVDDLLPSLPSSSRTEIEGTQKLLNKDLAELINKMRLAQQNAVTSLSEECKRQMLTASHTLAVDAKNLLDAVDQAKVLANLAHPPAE

[34] = test system: Proto-oncogene tyrosine-protein kinase receptor Ret (Homo sapiens), P07949 [M918T]; settings: Compound concentration 1000.0 nM
[35] = target: Serine/threonine-protein kinase SIK1 (Homo sapiens) (UniProt P57059); settings: Compound concentration 1000.0 nM
Sequence of Serine/threonine-protein kinase SIK1 (Homo sapiens) (P57059 whole entry): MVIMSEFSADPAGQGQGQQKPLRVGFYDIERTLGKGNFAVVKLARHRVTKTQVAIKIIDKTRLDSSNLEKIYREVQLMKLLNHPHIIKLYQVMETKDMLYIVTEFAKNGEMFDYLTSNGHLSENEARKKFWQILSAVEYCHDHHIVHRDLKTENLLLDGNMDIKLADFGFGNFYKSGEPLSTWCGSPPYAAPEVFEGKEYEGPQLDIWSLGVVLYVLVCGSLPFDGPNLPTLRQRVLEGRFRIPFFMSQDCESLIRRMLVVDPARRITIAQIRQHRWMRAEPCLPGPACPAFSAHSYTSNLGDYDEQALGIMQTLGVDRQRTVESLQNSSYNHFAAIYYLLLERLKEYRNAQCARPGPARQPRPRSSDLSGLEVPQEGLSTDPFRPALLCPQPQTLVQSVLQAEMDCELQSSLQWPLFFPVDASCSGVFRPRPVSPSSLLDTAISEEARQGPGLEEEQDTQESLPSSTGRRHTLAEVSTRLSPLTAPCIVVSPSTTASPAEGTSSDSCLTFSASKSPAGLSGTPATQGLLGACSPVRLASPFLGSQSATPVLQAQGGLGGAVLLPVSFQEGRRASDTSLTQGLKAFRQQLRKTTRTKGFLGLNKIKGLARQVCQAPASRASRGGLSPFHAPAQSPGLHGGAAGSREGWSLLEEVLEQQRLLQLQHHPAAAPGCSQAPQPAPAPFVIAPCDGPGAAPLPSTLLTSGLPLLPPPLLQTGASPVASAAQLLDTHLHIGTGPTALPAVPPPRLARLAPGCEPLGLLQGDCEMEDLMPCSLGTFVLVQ

[36] = target: Serine/threonine-protein kinase tousled-like 2 (Homo sapiens) (UniProt Q86UE8); settings: Compound concentration 1000.0 nM
[37] = target: Serine/threonine-protein kinase ULK3 (Homo sapiens) (UniProt Q6PHR2); settings: Compound concentration 1000.0 nM
[38] = target: Serine/threonine-protein kinase WNK3 (Homo sapiens) (UniProt Q9BYP7); settings: Compound concentration 1000.0 nM
[39] = target: Tyrosine-protein kinase Yes (Homo sapiens) (UniProt P07947); settings: Compound concentration 1000.0 nM
Sequence of Tyrosine-protein kinase Yes (Homo sapiens) (P07947 2-543 limits assumed): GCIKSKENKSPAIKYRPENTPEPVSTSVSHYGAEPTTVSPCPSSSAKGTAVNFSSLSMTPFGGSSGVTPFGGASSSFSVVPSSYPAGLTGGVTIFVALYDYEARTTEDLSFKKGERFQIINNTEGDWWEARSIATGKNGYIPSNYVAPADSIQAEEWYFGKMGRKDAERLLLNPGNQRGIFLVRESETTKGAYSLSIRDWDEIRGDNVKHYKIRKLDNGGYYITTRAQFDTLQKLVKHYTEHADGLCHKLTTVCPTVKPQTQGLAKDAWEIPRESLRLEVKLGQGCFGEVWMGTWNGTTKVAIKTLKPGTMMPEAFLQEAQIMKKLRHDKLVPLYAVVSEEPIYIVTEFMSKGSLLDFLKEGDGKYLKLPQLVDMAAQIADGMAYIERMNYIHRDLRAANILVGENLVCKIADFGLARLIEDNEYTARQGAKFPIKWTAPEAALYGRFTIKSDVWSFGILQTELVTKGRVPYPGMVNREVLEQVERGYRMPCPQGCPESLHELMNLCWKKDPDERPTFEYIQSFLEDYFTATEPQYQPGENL

[40] = target: D(2) dopamine receptor (Homo sapiens) (UniProt P14416); settings: Compound concentration 10.0 uM
[41] = target: Sodium-dependent dopamine transporter (Homo sapiens) (UniProt Q01959); settings: Compound concentration 10.0 uM
[42] = target: Alpha-2B adrenergic receptor (Homo sapiens) (UniProt P18089); settings: Compound concentration 10.0 uM
Sequence of Alpha-2B adrenergic receptor (Homo sapiens) (P18089 whole entry): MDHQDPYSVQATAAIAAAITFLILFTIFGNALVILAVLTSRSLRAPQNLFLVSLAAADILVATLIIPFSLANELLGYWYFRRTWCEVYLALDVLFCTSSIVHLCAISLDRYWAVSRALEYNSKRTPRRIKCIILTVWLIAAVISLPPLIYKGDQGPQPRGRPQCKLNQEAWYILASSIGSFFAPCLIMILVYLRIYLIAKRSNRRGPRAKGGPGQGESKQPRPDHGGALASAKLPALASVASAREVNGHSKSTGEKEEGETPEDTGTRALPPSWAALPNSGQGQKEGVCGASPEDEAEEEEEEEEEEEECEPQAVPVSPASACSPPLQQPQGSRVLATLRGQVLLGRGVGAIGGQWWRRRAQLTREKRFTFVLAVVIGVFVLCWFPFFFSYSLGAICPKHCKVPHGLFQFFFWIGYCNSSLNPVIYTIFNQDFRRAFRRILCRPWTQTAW

[43] = target: Muscarinic acetylcholine receptor M5 (Homo sapiens) (UniProt P08912); settings: Compound concentration 10.0 uM
[44] = target: GABA-A receptor; anion channel (Rattus norvegicus) (UniProt O09028+P15431+P18506+P18508+P19969+P20236+P23574+P23576+P28471+P28473+P30191+P62813+P63079+P63138+Q91ZM7+Q9ES14); settings: Compound concentration 10.0 uM

Compound: Nc1cnc(N2CCc3cc(S(=O)(=O)Nc4c(F)cc(Cl)cc4F)cc(N4CCCC4=O)c32)nc1
- residual activity [1]: 94%
- residual activity [2]: 100%
- residual activity [3]: 100%
- residual activity [4]: 67%
- residual activity [5]: 100%
- residual activity [6]: 100%
- residual activity [7]: 88%
- residual activity [8]: 100%
- residual activity [9]: 100%
- residual activity [10]: 89%
- residual activity [11]: 100%
- residual activity [12]: 87%
- residual activity [13]: 100%
- residual activity [14]: 88%
- residual activity [15]: 91%
- residual activity [16]: 62%
- residual activity [17]: 58%
- residual activity [18]: 83%
- residual activity [19]: 89%
- residual activity [20]: 100%
- residual activity [21]: 100%
- residual activity [22]: 100%
- residual activity [23]: 97%
- residual activity [24]: 92%
- residual activity [25]: 100%
- residual activity [26]: 75%
- residual activity [27]: 100%
- residual activity [28]: 100%
- residual activity [29]: 100%
- residual activity [30]: 100%
- residual activity [31]: 100%
- residual activity [32]: 100%
- residual activity [33]: 100%
- residual activity [34]: 100%
- residual activity [35]: 100%
- residual activity [36]: 79%
- residual activity [37]: 100%
- residual activity [38]: 100%
- residual activity [39]: 100%
- inhibition [40]: -0.42%
- inhibition [41]: 20.2%
- inhibition [42]: 0.99%
- inhibition [43]: 1.45%
- inhibition [44]: -1.96%

Compound: Cn1nc(C(F)(F)F)cc1-c1cnc(N2CCc3cc(S(=O)(=O)Nc4c(F)cc(Cl)cc4F)cc(N4CCCC4=O)c32)nc1 [TP-020]
- residual activity [1]: 95%
- residual activity [2]: 90%
- residual activity [3]: 100%
- residual activity [4]: 80%
- residual activity [5]: 100%
- residual activity [6]: 100%
- residual activity [7]: 91%
- residual activity [8]: 82%
- residual activity [9]: 100%
- residual activity [10]: 87%
- residual activity [11]: 100%
- residual activity [12]: 100%
- residual activity [13]: 100%
- residual activity [14]: 99%
- residual activity [15]: 100%
- residual activity [16]: 83%
- residual activity [17]: 94%
- residual activity [18]: 100%
- residual activity [19]: 89%
- residual activity [20]: 82%
- residual activity [21]: 91%
- residual activity [22]: 94%
- residual activity [23]: 89%
- residual activity [24]: 95%
- residual activity [25]: 12%
- residual activity [26]: 93%
- residual activity [27]: 78%
- residual activity [28]: 90%
- residual activity [29]: 80%
- residual activity [30]: 100%
- residual activity [31]: 100%
- residual activity [32]: 81%
- residual activity [33]: 100%
- residual activity [34]: 100%
- residual activity [35]: 100%
- residual activity [36]: 94%
- residual activity [37]: 100%
- residual activity [38]: 97%
- residual activity [39]: 99%
- inhibition [40]: -0.24%
- inhibition [41]: 14.5%
- inhibition [42]: 18.5%
- inhibition [43]: 7.43%
- inhibition [44]: 35.9%
